Results from patent publication US20250059159A1, “PLPRO INHIBITORS” (SHANGHAI SYNERGY PHARMACEUTICAL SCIENCES CO., LTD., priority 2021, published 2025).

Molecular target: SARS-CoV-2 PLpro (Severe acute respiratory syndrome coronavirus 2 (2019-nCoV) (SARS-CoV-2), UniProt P0DTD1)
Assay: PLpro enzymatic inhibition assay (IC50 value determination)
Type: biochemical
Settings: 60 min preincubation for covalent inhibitors, 10 min for non-covalent, read-out: Inhibition of SARS-CoV-2 PLpro IC50 range

SMILES | IC50
COC(=O)/C=C/CNC(=O)CNC(=O)CN(C(=O)Cc1ccc2c(c1)OCO2)C1CCN(C(C)c2cccc3ccccc23)CC1 (centres unmarked) [Compound 1, methyl (E)-4-(2-(2-(2-(benzo[d][1,3]dioxol-5-yl)-N-(1-(1-(naphthalen-1-yl)ethyl)piperidin-4-yl)acetamido)acetamido)acetamido)but-2-enoate] | 100 to 1000 nM
COC(=O)/C=C/CNC(=O)CNC(=O)CN(C(=O)Cc1ccc2c(c1)OCO2)C1CCN([C@H](C)c2cccc3ccccc23)CC1 [Compound 2, methyl (R,E)-4-(2-(2-(2-(benzo[d][1,3]dioxol-5-yl)-N-(1-(1-(naphthalen-1-yl)ethyl)piperidin-4-yl)acetamido)acetamido)acetamido)but-2-enoate] | 100 to 1000 nM
COC(=O)/C=C/CNC(=O)CNC(=O)CN(C(=O)Cc1cccc(F)c1)C1CCN([C@H](C)c2cccc3ccccc23)CC1 [Compound 3, methyl (R,E)-4-(2-(2-(2-(3-fluorophenyl)-N-(1-(1-(naphthalen-1-yl)ethyl)piperidin-4-yl)acetamido)acetamido)acetamido)but-2-enoate] | 100 to 1000 nM
COC(=O)/C=C/CNC(=O)CNC(=O)CN(C(=O)Cc1ccccc1)C1CCN(C(C)c2cccc3ccccc23)CC1 (centres unmarked) [Compound 4, methyl (E)-4-(2-(2-(N-(1-(1-(naphthalen-1-yl)ethyl)piperidin-4-yl)-2-phenylacetamido)acetamido)acetamido)but-2-enoate] | 100 to 1000 nM
COC(=O)/C=C/CNC(=O)CNC(=O)CN(C(=O)C1CC1)C1CCN([C@H](C)c2cccc3ccccc23)CC1 [Compound 5, methyl (R,E)-4-(2-(2-(N-(1-(1-(naphthalen-1-yl)ethyl)piperidin-4-yl)cyclopropanecarboxamido)acetamido)acetamido)but-2-enoate] | < 100 nM
COC(=O)/C=C/CNC(=O)CNC(=O)CN(C(=O)C1CCC1)C1CCN(C(C)c2cccc3ccccc23)CC1 (centres unmarked) [Compound 6, methyl (E)-4-(2-(2-(N-(1-(1-(naphthalen-1-yl)ethyl)piperidin-4-yl)cyclobutanecarboxamido)acetamido)acetamido)but-2-enoate] | < 100 nM
COC(=O)/C=C/CNC(=O)CNC(=O)CN(C(=O)C1CCC1)C1CCN([C@H](C)c2cccc3ccccc23)CC1 [Compound 7, methyl (R,E)-4-(2-(2-(N-(1-(1-(naphthalen-1-yl)ethyl)piperidin-4-yl)cyclobutanecarboxamido)acetamido)acetamido)but-2-enoate] | 100 to 1000 nM
CC(c1cccc2ccccc12)N1CCC(N(CC(=O)NCC(=O)NC/C=C/C(N)=O)C(=O)C2CCC2)CC1 (centres unmarked) [Compound 8, (E)-N-(2-((2-((4-amino-4-oxobut-2-en-1-yl)amino)-2-oxoethyl)amino)-2-oxoethyl)-N-(1-(1-(naphthalen-1-yl)ethyl)piperidin-4-yl)cyclobutanecarboxamide] | 100 to 1000 nM
CC(c1cccc2ccccc12)N1CCC(N(CC(=O)NCC(=O)NC/C=C/S(C)(=O)=O)C(=O)C2CCC2)CC1 (centres unmarked) [Compound 9, (E)-N-(2-((2-((3-(methylsulfonyl)allyl)amino)-2-oxoethyl)amino)-2-oxoethyl)-N-(1-(1-(naphthalen-1-yl)ethyl)piperidin-4-yl)cyclobutanecarboxamide] | 100 to 1000 nM
COC(=O)/C=C/CNC(=O)CNC(=O)CN(C(=O)C1CCCC1)C1CCN([C@H](C)c2cccc3ccccc23)CC1 [Compound 10, methyl (R,E)-4-(2-(2-(N-(1-(1-(naphthalen-1-yl)ethyl)piperidin-4-yl)cyclopentanecarboxamido)acetamido)acetamido)but-2-enoate] | 100 to 1000 nM
COC(=O)/C=C/CNC(=O)CNC(=O)CN(C(=O)C1CCCCC1)C1CCN([C@H](C)c2cccc3ccccc23)CC1 [Compound 11, methyl (R,E)-4-(2-(2-(N-(1-(1-(naphthalen-1-yl)ethyl)piperidin-4-yl)cyclohexanecarboxamido)acetamido)acetamido)but-2-enoate] | 100 to 1000 nM
